Assay results reported in ChEMBL document CHEMBL4765246, “Design, synthesis and biological evaluation of quinoxaline compounds as anti-HIV agents targeting reverse transcriptase enzyme” (Eur J Med Chem, 2020).
pEC50, pIC50: −log10 of the molar value.

Assays:
[1] = test system: Human immunodeficiency virus type 1 BH10; assay: (§1) Inhibition of wild type recombinant HIV-1 subtype B BH10 p66/p51 reverse transcriptase heterodimer expressed in Escherichia coli BL21 (DE3) assessed as inhibition of dTTP incorporation on poly(rA)-oligo(dT) template primer duplex at 10 uM preincubated with enzyme for 2 mins followed by incubation with poly(A)-oligo(dT) templates for 2 hrs by flourescence assay method; details: time 122.0 min
[2] = test system: Human immunodeficiency virus type 1 BH10; assay: as §1, with “at 100” for “at 10”; details: time 122.0 min
[3] = test system: Human immunodeficiency virus type 1 BH10; assay: as §1, with “of” for “of wild type”, “heterodimer K103N mutant” for “heterodimer expressed in Escherichia coli BL21 (DE3)”, “at 50” for “at 10”; details: time 122.0 min
[4] = as §1, with “duplex” for “duplex at 10 uM”; set-up: species or system Human immunodeficiency virus type 1 BH10
[5] = test system: Human immunodeficiency virus type 1 BH10; assay: Selectivity for inhibition of wild type recombinant HIV-1 subtype B BH10 p66/p51 reverse transcriptase heterodimer expressed in Escherichia coli BL21 (DE3) at 50 uM over inhibition of recombinant HIV-1 subtype B BH10 p66/p51 reverse transcriptase heterodimer K103N mutant at 50 uM by fluorescence based assay
[6] = Anti-HIV-1 activity against HTLV-3B infected in human MT2 cells assessed as reduction in syncytium formation by measuring reduction in p24 antigen production measured after 4 days by ELISA method; format: functional, cell-based; details: Human immunodeficiency virus 1, HTLV-3B, MT2, 96 h
[7] = Cytotoxicity against human MT2 cells assessed as reduction in cell viability measured after 4 days by Trypan blue assay; format: cell-based; details: time 4 day
[8] = Selectivity index, ratio of CC50 for human MT2 cells to EC50 for anti-HIV-1 activity against HTLV-3B infected in human MT2 cells; format: toxicity, cell-based; details: read-out: Ratio CC50/EC50

Work on `C[C@H]1C(=O)Nc2ccccc2N1C(=O)CCCl` yielded an inhibition [1] of 15% and an inhibition [2] of 28%.
With `CC(C)c1nc2ccccc2[nH]c1=O` the inhibition [1] was 12% and the inhibition [2] was 17%.
`CC(C)COC(=O)N1c2ccccc2NC(=O)[C@@H]1CC(C)C` showed an inhibition [1] of 22%, an inhibition [2] of 51% and an inhibition [3] of 20%. For the same compound, the pIC50 [4] was 4.17 and the Selectivity ratio [5] was 3.
In the case of `CC(C)COC(=O)N1CC(=O)Nc2ccccc21`, the pEC50 [6] was less than 5.00, the inhibition [1] was 20% and the inhibition [2] was 46%. It also gave a CC50 at 96 h [7] of 262 µM.
Work on `CC(=O)N1CC(=O)Nc2ccccc21` yielded an inhibition [1] of 7% and an inhibition [2] of 56%.
For `CC(C)[C@H]1C(=O)Nc2ccccc2N1C(=O)CCCl`, the inhibition [1] was 7% and the inhibition [2] was 7%.
`CC(C)OC(=O)CCc1nc2ccccc2nc1O` showed an inhibition [1] of 21% and an inhibition [2] of 25%.
Work on `C[C@H]1CNc2ccccc2N1C(=O)CCl` yielded an inhibition [1] of 8% and an inhibition [2] of 8%.
Work on `CC(C)C[C@H]1C(=O)Nc2ccccc2N1C(=O)CCCl` yielded an inhibition [1] of 10% and an inhibition [2] of 20%.
Work on `CC(C)[C@H]1C(=O)Nc2ccccc2N1C(=O)CCl` yielded an inhibition [1] of 5% and an inhibition [2] of 12%.
With `CC(C)COC(=O)N1c2ccccc2NC(=O)[C@@H]1C` the pEC50 [6] was 5.80, the inhibition [1] was 37% and the inhibition [2] was 64%. It also gave an inhibition [3] of 13%, a selectivity ratio [8] of 74 and a pIC50 [4] of 4.19. For the same compound, the CC50 at 96 h [7] was 117 µM and the Selectivity ratio [5] was 5.
In the case of `O=C1CN(C(=O)CCl)c2ccccc2N1`, the inhibition [1] was 24% and the inhibition [2] was 32%.
With `CC(C)Cc1nc2ccccc2[nH]c1=O` the pEC50 [6] was less than 5.00, the inhibition [1] was 15% and the inhibition [2] was 73%. The inhibition [3] was 5%, the pIC50 [4] was 4.64 and the CC50 at 96 h [7] was 134 µM. The Selectivity ratio [5] was 16.
`Cc1ccnc2c1NC(=O)c1cccnc1N2C1CC1` [NEVIRAPINE] gave a pEC50 [6] of 8.17, an inhibition [1] of 91% and an inhibition [2] of 98%. For the same compound, the inhibition [3] was 50%, the selectivity ratio [8] was 14400 and the pIC50 [4] was 6.89. For the same compound, the CC50 at 96 h [7] was 96.2 µM and the Selectivity ratio [5] was 2.
`CCC(=O)N1c2ccccc2NC(=O)[C@@H]1C` gave an inhibition [1] of 7% and an inhibition [2] of 23%.
`O=C1CN(C(=O)c2ccccc2)c2ccccc2N1` showed an inhibition [1] of 14% and an inhibition [2] of 33%.
With `CCC(=O)N1CC(=O)Nc2ccccc21` the pEC50 [6] was 8.51, the inhibition [1] was 91% and the inhibition [2] was 99%. For the same compound, the inhibition [3] was 47%, the selectivity ratio [8] was 31800 and the pIC50 [4] was 6.20. The CC50 at 96 h [7] was 98.6 µM and the Selectivity ratio [5] was 2.
In the case of `O=C1CN(S(=O)(=O)c2ccccc2)c2ccccc2N1`, the inhibition [1] was 14% and the inhibition [2] was 12%.
Compound `O=C(O)CCc1nc2ccccc2[nH]c1=O` has an inhibition [1] of 20% and an inhibition [2] of 15%.
Compound `COC(=O)CCc1nc2ccccc2nc1O` has an inhibition [1] of 8% and an inhibition [2] of 23%.
For `CCOC(=O)CCc1nc2ccccc2nc1O`, the inhibition [1] was 15% and the inhibition [2] was 12%.
With `O=C1CN(C(=O)CCCl)c2ccccc2N1` the inhibition [1] was 12% and the inhibition [2] was 26%.
`CC(C)OC(=O)N1CC(=O)Nc2ccccc21` gave an inhibition [1] of 20% and an inhibition [2] of 19%.
Work on `Cc1nc2ccccc2nc1O` yielded an inhibition [1] of 3% and an inhibition [2] of 1%.
`Oc1nc2ccccc2nc1Cc1ccccc1` showed an inhibition [1] of 10% and an inhibition [2] of 26%.
For `Oc1nc2ccccc2nc1O`, the inhibition [1] was 8% and the inhibition [2] was 1%.
